Values of other authors as cited in US20250262160A1, “COMPOSITIONS FOR MODIFIED RELEASE OF ACTIVE INGREDIENTS” (PROLEVI BIO AB, priority 2022, published 2025).
Like-named read-outs stand apart in the source and are kept apart here.

Tests used:
[1] = assumed parameter for IVIVC, as reported in literature

**Q.** For `N[C@@H](Cc1cc(I)c(Oc2ccc(O)c(I)c2)c(I)c1)C(=O)O` [Formulation T3, triiodothyronine], which “Volume of distribution (Vd)” value (body weight 75 kg euthyroid individual, parameter used for IVIVC) is on record?
**A.** 0.2 L/kg

**Q.** What about the “Half-life (t½) after baseline (120 ng/dL) correction” value (estimated, parameter used for IVIVC) of the same compound?
**A.** 4 h

**Q.** What about the elimination half-life (in adults) of the same compound?
**A.** 23 to 25 h

**Q.** What about the biological half-life (in vivo) of the same compound?
**A.** 2.5 days

**Q.** And the “estimated baseline corrected half-life” value (in vivo)?
**A.** 4 h

**Q.** And the bioavailability (parameter used for IVIVC)?
**A.** 95%

**Q.** What about the Tmax (thyroidectomized patients administered exogenous hormone) of the same compound?
**A.** 2.9 h

**Q.** And the T1/2 half-life (thyroidectomized patients administered exogenous hormone, after last LT3 dose withdrawal)?
**A.** 3.62 h

**Q.** What does the source list for `COc1ccc2[nH]cc(CCNC(C)=O)c2c1` [melatonin]?
**A.** Half-life (T1/2) [1]: 0.75 h; oral bioavailability (BA) [1]: 15%; Volume of distribution (Vd) ([1]; body weight 75 Kg): 1602 L
